Results as given in patent US20230278972A1, “SUBSTITUTED HALOALKYL SULFONANILIDE HERBICIDES” (FMC Corporation, priority 2020, published 2023).

Tests used:
Type in all cases: in vivo
[1] = test system: ragweed (common ragweed, Ambrosia artemisiifolia); assay: Test A postemergence, ragweed; conditions: Postemergence, 0 to 100 scale (0 no effect, 100 complete control); for Plant response rating, Ragweed: 125 g ai/ha; for Ragweed plant response rating: 500 g ai/ha, visual injury vs untreated controls after approx. 10 days
Description: (§1) Seeds of plant species selected from barnyardgrass (Echinochloa crus-galli), kochia (Bassia scoparia), ragweed (common ragweed, Ambrosia artemisiifolia), Ryegrass, Italian (Italian ryegrass, Lolium multiflorum), Foxtail, Giant (giant foxtail, Setaria faberi), and pigweed (Amaranthus retroflexus) were planted into a blend of loam soil and sand and treated preemergence with a directed soil spray using test chemicals formulated in a non-phytotoxic solvent mixture which included a surfactant. At the same time, plants selected from these weed species and also wheat (Triticum aestivum), corn (Zea mays), blackgrass (Alopecurus myosuroides), and galium (catchweed bedstraw, Galium aparine) were planted in pots containing the same blend of loam soil and sand and treated with postemergence applications of test chemicals formulated in the same manner. Plants ranged in height from 2 to 10 cm and were in the one- to two-leaf stage for the postemergence treatment. […] A dash (-) response means no test result.

[2] = test system: barnyardgrass (Echinochloa crus-galli); assay: Test A postemergence, barnyardgrass; conditions: Postemergence, 0 to 100 scale (0 no effect, 100 complete control); for Plant response rating, Barnyardgrass: 125 g ai/ha; for Barnyardgrass plant response rating: 500 g ai/ha, visual injury vs untreated controls after approx. 10 days
Description: as §1

[3] = test system: Foxtail, Giant (giant foxtail, Setaria faberi); assay: Test A preemergence, Foxtail, Giant; conditions: Preemergence; for Foxtail, Giant plant response rating: 125 g ai/ha, visual injury on 0 to 100 scale (0 no effect, 100 complete control), approximately 10 days; for Plant response rating, Foxtail, Giant: 500 g ai/ha, 0 to 100 scale (0 no effect, 100 complete control)
Description: as §1

[4] = test system: blackgrass (Alopecurus myosuroides); assay: Test A postemergence, blackgrass; conditions: Postemergence, 0 to 100 scale (0 no effect, 100 complete control); for Plant response rating, Blackgrass: 125 g ai/ha; for Blackgrass plant response rating: 500 g ai/ha, visual injury vs untreated controls after approx. 10 days
Description: as §1

[5] = test system: pigweed (Amaranthus retroflexus); assay: Test A postemergence, pigweed; conditions: Postemergence, 0 to 100 scale (0 no effect, 100 complete control); for Plant response rating, Pigweed: 125 g ai/ha; for Pigweed plant response rating: 500 g ai/ha, visual injury vs untreated controls after approx. 10 days
Description: as §1

[6] = test system: Ryegrass, Italian (Italian ryegrass, Lolium multiflorum); assay: Test A postemergence, Ryegrass, Italian; conditions: Postemergence, 0 to 100 scale (0 no effect, 100 complete control); for Plant response rating, Ryegrass, Italian: 125 g ai/ha; for Ryegrass, Italian plant response rating: 500 g ai/ha, visual injury vs untreated controls after approx. 10 days
Description: as §1

[7] = test system: Foxtail, Giant (giant foxtail, Setaria faberi); assay: Test A postemergence, Foxtail, Giant; conditions: Postemergence, 0 to 100 scale (0 no effect, 100 complete control); for Plant response rating, Foxtail, Giant: 125 g ai/ha; for Foxtail, Giant plant response rating: 500 g ai/ha, visual injury vs untreated controls after approx. 10 days
Description: as §1

[8] = test system: galium (catchweed bedstraw, Galium aparine); assay: Test A postemergence, galium; conditions: Postemergence, 0 to 100 scale (0 no effect, 100 complete control); for Plant response rating, Galium: 125 g ai/ha; for Galium plant response rating: 500 g ai/ha, visual injury vs untreated controls after approx. 10 days
Description: as §1

[9] = test system: barnyardgrass (Echinochloa crus-galli); assay: Test A preemergence, barnyardgrass; conditions: Preemergence; for Barnyardgrass plant response rating: 125 g ai/ha, visual injury on 0 to 100 scale (0 no effect, 100 complete control), approximately 10 days; for Plant response rating, Barnyardgrass: 500 g ai/ha, 0 to 100 scale (0 no effect, 100 complete control)
Description: as §1

kochia (Bassia scoparia) [10] = assay: Test A preemergence, kochia; conditions: Preemergence; for Kochia plant response rating: 125 g ai/ha, visual injury on 0 to 100 scale (0 no effect, 100 complete control), approximately 10 days; for Plant response rating, Kochia: 500 g ai/ha, 0 to 100 scale (0 no effect, 100 complete control)
Description: as §1

[11] = test system: Ryegrass, Italian (Italian ryegrass, Lolium multiflorum); assay: Test A preemergence, Ryegrass, Italian; conditions: Preemergence; for Ryegrass, Italian plant response rating: 125 g ai/ha, visual injury on 0 to 100 scale (0 no effect, 100 complete control), approximately 10 days; for Plant response rating, Ryegrass, Italian: 500 g ai/ha, 0 to 100 scale (0 no effect, 100 complete control)
Description: as §1

corn (Zea mays) = assay: Test A postemergence, corn; conditions: Postemergence, 0 to 100 scale (0 no effect, 100 complete control); for Plant response rating, Corn: 125 g ai/ha; for Corn plant response rating: 500 g ai/ha, visual injury vs untreated controls after approx. 10 days
Description: as §1

[12] = test system: ragweed (common ragweed, Ambrosia artemisiifolia); assay: Test A preemergence, ragweed; conditions: Preemergence; for Ragweed plant response rating: 125 g ai/ha, visual injury on 0 to 100 scale (0 no effect, 100 complete control), approximately 10 days; for Plant response rating, Ragweed: 500 g ai/ha, 0 to 100 scale (0 no effect, 100 complete control)
Description: as §1

[13] = test system: wheat (Triticum aestivum); assay: Test A postemergence, wheat; conditions: Postemergence, 0 to 100 scale (0 no effect, 100 complete control); for Plant response rating, Wheat: 125 g ai/ha; for Wheat plant response rating: 500 g ai/ha, visual injury vs untreated controls after approx. 10 days
Description: as §1

kochia (Bassia scoparia) [14] = assay: Test A postemergence, kochia; conditions: Postemergence, 0 to 100 scale (0 no effect, 100 complete control); for Plant response rating, Kochia: 125 g ai/ha; for Kochia plant response rating: 500 g ai/ha, visual injury vs untreated controls after approx. 10 days
Description: as §1

Row | Structure (SMILES) | Ragweed plant response rating [1] | Barnyardgrass plant response rating [2] | Foxtail, Giant plant response rating [3] | Plant response rating, Foxtail, Giant [3] | Blackgrass plant response rating [4] | Pigweed plant response rating [5] | Ryegrass, Italian plant response rating [6] | Foxtail, Giant plant response rating [7] | Galium plant response rating [8] | Barnyardgrass plant response rating [9] | Plant response rating, Barnyardgrass [9] | Kochia plant response rating (kochia (Bassia scoparia) [10]) | Plant response rating, Kochia (kochia (Bassia scoparia) [10]) | Ryegrass, Italian plant response rating [11] | Plant response rating, Ryegrass, Italian [11] | Corn plant response rating (corn (Zea mays)) | Ragweed plant response rating [12] | Plant response rating, Ragweed [12] | Wheat plant response rating [13] | Kochia plant response rating (kochia (Bassia scoparia) [14]) | other results
1 | Cc1c(NS(=O)(=O)C(F)(F)F)cc(C(=O)N2CC(C)OC(C)C2)c(C)c1F (stereo not drawn) [Compound 116] | 90 | 90 | 60 | 90 | 40 | 80 | 80 | 80 | 90 | 30 | 90 | 90 | 100 | 40 | 90 | 80 | 10 | 100 | 80 | 70 | Plant response rating, Ragweed ([1]; visual injury approx. 10 days): 90; Plant response rating, Barnyardgrass ([2]; visual injury approx. 10 days): 50; Plant response rating, Blackgrass ([4]; visual injury approx. 10 days): 0; Plant response rating, Pigweed ([5]; visual injury approx. 10 days): 60; Plant response rating, Ryegrass, Italian ([6]; visual injury approx. 10 days): 60; Plant response rating, Foxtail, Giant ([7]; visual injury approx. 10 days): 0; Plant response rating, Galium ([8]; visual injury approx. 10 days): 90; Plant response rating, Corn (corn (Zea mays); visual injury approx. 10 days): 0; Plant response rating, Wheat ([13]; visual injury approx. 10 days): 60; Plant response rating, Kochia (kochia (Bassia scoparia) [14]; visual injury approx. 10 days): 30
2 | COC1CCCN(C(=O)c2cc(NS(=O)(=O)C(F)(F)F)c(Cl)cc2C)C1 (stereo not drawn) [Compound 146] | 90 | 80 | 100 | 100 | 20 | 80 | 70 | 90 | 90 | 90 | 100 | 80 | 80 | 90 | 100 | 20 | 60 | 70 | 60 | 50 | Plant response rating, Ragweed [1]: 60; Plant response rating, Barnyardgrass [2]: 40; Plant response rating, Blackgrass [4]: 0; Plant response rating, Pigweed [5]: 50; Plant response rating, Ryegrass, Italian [6]: 30; Plant response rating, Foxtail, Giant [7]: 20; Plant response rating, Galium [8]: 90; Plant response rating, Corn (corn (Zea mays)): 10; Plant response rating, Wheat [13]: 50; Plant response rating, Kochia (kochia (Bassia scoparia) [14]): 40
